In patent publication US20120029187A1, “HALOALKYLSULFONANILIDE DERIVATIVE” (Nissan Chemical Industries, Ltd., priority 2009, published 2012):

How the values were obtained:
Assay type in all cases: in vivo
common lambsquater [1] = assay: Test Example 3: herbicidal effects in soil treatment; conditions: dose 6.3 g/a
In short: (§1)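 Seeds were sown in sterilized diluvial soil and covered with about 1.5 cm of soil. Compounds, formulated as emulsifiable concentrates and diluted with water, were sprayed evenly over the soil surface at set doses in g/a. Herbicidal effect was scored on a rating scale three weeks later.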

barnyardgrass [2] = assay: as above; conditions: dose 6.3 g/a
In short: as §1

giant foxtail [3] = assay: as above; conditions: dose 6.3 g/a
In short: as §1

common chickweed [4] = assay: as above; conditions: dose 6.3 g/a
In short: as §1

posumbu knotweed [5] = assay: as above; conditions: dose 6.3 g/a
In short: as §1

redroot pigweed [6] = assay: as above; conditions: dose 6.3 g/a
In short: as §1

common ragweed [7] = assay: as above; conditions: dose 6.3 g/a
In short: as §1

Italian ryegrass [8] = assay: as above; conditions: dose 6.3 g/a
In short: as §1

water foxtail [9] = assay: as above; conditions: dose 6.3 g/a
In short: as §1

large crabgrass [10] = assay: as above; conditions: dose 6.3 g/a
In short: as §1

velvetleaf [11] = assay: as above; conditions: dose 6.3 g/a
In short: as §1

wild oat [12] = assay: as above; conditions: dose 6.3 g/a
In short: as §1

common lambsquater [13] = assay: Test Example 4: herbicidal effect in foliage treatment; conditions: dose 6.3 g/a, three weeks after application
In short: (§2)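 Herbicidal effect was rated on an evaluation scale three weeks after treatment. Plants had been raised 14 days at 25 to 30° C in sterilized diluvial soil, then received foliar sprays of emulsifiable concentrate diluted in water at predetermined doses expressed as g per are.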

barnyardgrass [14] = assay: as above; conditions: dose 6.3 g/a, three weeks after application
In short: as §2

giant foxtail [15] = assay: as above; conditions: dose 6.3 g/a, three weeks after application
In short: as §2

common chickweed [16] = assay: as above; conditions: dose 6.3 g/a, three weeks after application
In short: as §2

posumbu knotweed [17] = assay: as above; conditions: dose 6.3 g/a, three weeks after application
In short: as §2

redroot pigweed [18] = assay: as above; conditions: dose 6.3 g/a, three weeks after application
In short: as §2

common ragweed [19] = assay: as above; conditions: dose 6.3 g/a, three weeks after application
In short: as §2

Italian ryegrass [20] = assay: as above; conditions: dose 6.3 g/a, three weeks after application
In short: as §2

beadstraw = assay: as above; conditions: dose 6.3 g/a, three weeks after application
In short: as §2

water foxtail [21] = assay: as above; conditions: dose 6.3 g/a, three weeks after application
In short: as §2

large crabgrass [22] = assay: as above; conditions: dose 6.3 g/a, three weeks after application
In short: as §2

velvetleaf [23] = assay: as above; conditions: dose 6.3 g/a, three weeks after application
In short: as §2

wild oat [24] = assay: as above; conditions: dose 6.3 g/a, three weeks after application
In short: as §2

bulrush [25] = assay: Test Example 1: herbicidal effects in preemergence treatment under submerged conditions; conditions: dose 2.52 g/a
In short: (§3)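 Alluvial soil flooded to 4 cm depth; barnyardgrass, bulrush and ducksalad sown and 2.5-leaf rice seedlings transplanted. Same day, water-diluted emulsifiable concentrates applied to the water surface at set doses (g/a). Kept at 25–30 °C in greenhouse; effects scored 0–5 by mortality after three weeks.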

barnyardgrass [26] = assay: as above; conditions: dose 2.52 g/a
In short: as §3

ducksalad [27] = assay: as above; conditions: dose 2.52 g/a
In short: as §3

bulrush [28] = assay: Test Example 2: herbicidal effects during the vegetation period under submerged conditions; conditions: treatment during the vegetation period under submerged conditions; dose 2.52 g/a
In short: (§4)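 Barnyardgrass, bulrush and ducksalad were co-sown in alluvial soil flooded to 4 cm and grown in a greenhouse at 25 to 30° C. At the 1- or 2-leaf stage, water-diluted emulsifiable concentrates went onto the water surface at set doses (g/a). Herbicidal effect was scored three weeks later on a graded scale.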

barnyardgrass [29] = assay: as above; conditions: treatment during the vegetation period under submerged conditions; dose 2.52 g/a
In short: as §4

ducksalad [30] = assay: as above; conditions: treatment during the vegetation period under submerged conditions; dose 2.52 g/a
In short: as §4

| SMILES | L: common lambsquater, herbicidal effect (evaluation scale 0-5) (common lambsquater [1]) | A: barnyardgrass, herbicidal effect (evaluation scale 0-5) (barnyardgrass [2]) | E: giant foxtail, herbicidal effect (evaluation scale 0-5) (giant foxtail [3]) | N: common chickweed, herbicidal effect (evaluation scale 0-5) (common chickweed [4]) | M: posumbu knotweed, herbicidal effect (evaluation scale 0-5) (posumbu knotweed [5]) | K: redroot pigweed, herbicidal effect (evaluation scale 0-5) (redroot pigweed [6]) | J: common ragweed, herbicidal effect (evaluation scale 0-5) (common ragweed [7]) | H: Italian ryegrass, herbicidal effect (evaluation scale 0-5) (Italian ryegrass [8]) | G: water foxtail, herbicidal effect (evaluation scale 0-5) (water foxtail [9]) | D: large crabgrass, herbicidal effect (evaluation scale 0-5) (large crabgrass [10]) | I: velvetleaf, herbicidal effect (evaluation scale 0-5) (velvetleaf [11]) | F: wild oat, herbicidal effect (evaluation scale 0-5) (wild oat [12]) | L: common lambsquater, herbicidal effect (common lambsquater [13]) | A: barnyardgrass, herbicidal effect (barnyardgrass [14]) | E: giant foxtail, herbicidal effect (giant foxtail [15]) | N: common chickweed, herbicidal effect (common chickweed [16]) | M: posumbu knotweed, herbicidal effect (posumbu knotweed [17]) | K: redroot pigweed, herbicidal effect (redroot pigweed [18]) | J: common ragweed, herbicidal effect (common ragweed [19]) | H: Italian ryegrass, herbicidal effect (Italian ryegrass [20]) | other results |
| --- | --- | --- | --- | --- | --- | --- | --- | --- | --- | --- | --- | --- | --- | --- | --- | --- | --- | --- | --- | --- | --- |
| O=C1COCCN1Cc1ccccc1NS(=O)(=O)C(F)(F)F [Compound I-1, 4-(2-trifluoromethanesulfonylaminobenzyl)-1,4-oxazinan-3-one] | 5 (mortality of 90% or above (nearly complete death)) | 5 (mortality of 90% or above (nearly complete death)) | 5 (mortality of 90% or above (nearly complete death)) | 5 (mortality of 90% or above (nearly complete death)) | 5 (mortality of 90% or above (nearly complete death)) | 5 (mortality of 90% or above (nearly complete death)) | 4 (mortality of at least 70% and less than 90%) | 5 (mortality of 90% or above (nearly complete death)) | 5 (mortality of 90% or above (nearly complete death)) | 5 (mortality of 90% or above (nearly complete death)) | 5 (mortality of 90% or above (nearly complete death)) | 4 (mortality of at least 70% and less than 90%) | 5 (mortality of 90% or above (nearly complete death)) | 5 (mortality of 90% or above (nearly complete death)) | 5 (mortality of 90% or above (nearly complete death)) | 4 (mortality of at least 70% and less than 90%) | 5 (mortality of 90% or above (nearly complete death)) | 3 (mortality of at least 40% and less than 70%) | 4 (mortality of at least 70% and less than 90%) | 5 (mortality of 90% or above (nearly complete death)) | O: beadstraw, herbicidal effect (beadstraw): 5 (mortality of 90% or above (nearly complete death)); G: water foxtail, herbicidal effect (water foxtail [21]): 5 (mortality of 90% or above (nearly complete death)); D: large crabgrass, herbicidal effect (large crabgrass [22]): 5 (mortality of 90% or above (nearly complete death)); I: velvetleaf, herbicidal effect (velvetleaf [23]): 5 (mortality of 90% or above (nearly complete death)); F: wild oat, herbicidal effect (wild oat [24]): 3 (mortality of at least 40% and less than 70%); B: bulrush, herbicidal effect (evaluation scale 0-5) (bulrush [25]): 5 (mortality of 90% or above (nearly complete death)); A: barnyardgrass, herbicidal effect (evaluation scale 0-5) (barnyardgrass [26]): 5 (mortality of 90% or above (nearly complete death)); C: ducksalad, herbicidal effect (evaluation scale 0-5) (ducksalad [27]): 5 (mortality of 90% or above (nearly complete death)); B: bulrush, herbicidal effect (evaluation scale 0-5) (bulrush [28]): 5 (mortality of 90% or above (nearly complete death)); A: barnyardgrass, herbicidal effect (evaluation scale 0-5) (barnyardgrass [29]): 5 (mortality of 90% or above (nearly complete death)); C: ducksalad, herbicidal effect (evaluation scale 0-5) (ducksalad [30]): 5 (mortality of 90% or above (nearly complete death)) |
| O=C1CSCCN1Cc1ccccc1NS(=O)(=O)C(F)(F)F [Compound I-17, 4-(2-trifluoromethanesulfonylaminobenzyl)-1,4-thiazinan-3-one] | 5 (mortality of 90% or above (nearly complete death)) | 5 (mortality of 90% or above (nearly complete death)) | 3 (mortality of at least 40% and less than 70%) | 5 (mortality of 90% or above (nearly complete death)) | 2 (mortality of at least 20% and less than 40%) | 3 (mortality of at least 40% and less than 70%) | 4 (mortality of at least 70% and less than 90%) | 3 (mortality of at least 40% and less than 70%) | 5 (mortality of 90% or above (nearly complete death)) | 5 (mortality of 90% or above (nearly complete death)) | 1 (mortality of at least 5% and less than 20%) | 0 (mortality of less than 5% (almost ineffective)) | 5 (mortality of 90% or above (nearly complete death)) | 4 (mortality of at least 70% and less than 90%) | 3 (mortality of at least 40% and less than 70%) | 4 (mortality of at least 70% and less than 90%) | 3 (mortality of at least 40% and less than 70%) | 4 (mortality of at least 70% and less than 90%) | 4 (mortality of at least 70% and less than 90%) | 3 (mortality of at least 40% and less than 70%) | O: beadstraw, herbicidal effect (beadstraw): 5 (mortality of 90% or above (nearly complete death)); G: water foxtail, herbicidal effect (water foxtail [21]): 5 (mortality of 90% or above (nearly complete death)); D: large crabgrass, herbicidal effect (large crabgrass [22]): 5 (mortality of 90% or above (nearly complete death)); I: velvetleaf, herbicidal effect (velvetleaf [23]): 4 (mortality of at least 70% and less than 90%); F: wild oat, herbicidal effect (wild oat [24]): 1 (mortality of at least 5% and less than 20%); B: bulrush, herbicidal effect (evaluation scale 0-5) (bulrush [25]): 5 (mortality of 90% or above (nearly complete death)); A: barnyardgrass, herbicidal effect (evaluation scale 0-5) (barnyardgrass [26]): 4 (mortality of at least 70% and less than 90%); C: ducksalad, herbicidal effect (evaluation scale 0-5) (ducksalad [27]): 5 (mortality of 90% or above (nearly complete death)); B: bulrush, herbicidal effect (evaluation scale 0-5) (bulrush [28]): 5 (mortality of 90% or above (nearly complete death)); C: ducksalad, herbicidal effect (evaluation scale 0-5) (ducksalad [30]): 4 (mortality of at least 70% and less than 90%) |
